This is an account of results in US4001218A, “Penicillins” (Bayer Aktiengesellschaft, priority 1972, dated 1977).

The subject of one assay is E. coli A 261. Put plainly: MIC, test tube series dilution test, E. coli A 261. The class given is cell-based. The following applies: 24 hours, 37°C.
A further assay has as its system Staph. aureus 133. It is filed as cell-based, Staphylococcus aureus. The following applies: Staph. aureus 133; 24 hours, 37°C.
The subject of the next assay is Proteus vulg. 1017. The class given is cell-based, Proteus vulgaris. To be noted: Proteus 1017; 24 hours, 37°C.
The subject of another assay is Proteus morg. 932. In words: MIC, test tube series dilution test, Proteus morg. 932. The class given is cell-based. To be noted: 24 hours, 37°C.
A further assay deals with E. coli 14. It is filed as cell-based. To be noted: E. coli 14; 24 hours, 37°C.
The next assay relates to Enterococcus 9790. In words: MIC, test tube series dilution test, Enterococcus 9790. It is filed as cell-based. To be noted: 24 hours, 37°C.

The structures appear in SMILES notation.

In the case of `Cc1cc(C(=O)N[C@@H](C(=O)N[C@@H]2C(=O)N3[C@@H]2SC(C)(C)[C@@H]3C(=O)O)c2ccccc2)ccc1N` [Example 32, sodium D(-)-α-(4-amino-3-methyl-benzoylamino)-benzyl-penicillin], the MIC in the assay with E. coli A 261 is listed as over 256 U/ml; in the assay with Staph. aureus 133, under 1 U/ml.

`CC1(C)S[C@@H]2[C@H](NC(=O)[C@H](NC(=O)c3ccc(NC(=O)c4ccc5c(c4)OCO5)cc3)c3ccccc3)C(=O)N2[C@H]1C(=O)O` [Example 24]: the MIC with E. coli A 261 is listed as over 256 U/ml; in the assay with Staph. aureus 133, under 1 U/ml.

In the assay on E. coli A 261, `CC1(C)S[C@@H]2[C@H](NC(=O)[C@H](NC(=O)CSc3ccc(NC(=O)CC4C=CCC4)cc3)c3ccccc3)C(=O)N2[C@H]1C(=O)O` (stereo partly shown) [Example 62] yielded an MIC of over 256 U/ml.

As for `CC1(C)S[C@@H]2[C@H](NC(=O)[C@H](NC(=O)C=Cc3ccc([N+](=O)[O-])cc3)c3ccccc3)C(=O)N2[C@H]1C(=O)O` [Example 54], the results for the MIC with E. coli A 261 and in the assay with Staph. aureus 133 were over 256 U/ml and under 1 U/ml, respectively.

Regarding `CC1(C)S[C@@H]2[C@H](NC(=O)[C@H](NC(=O)c3ccc(NC(=O)c4cccs4)cc3)c3ccccc3)C(=O)N2[C@H]1C(=O)O` [Example 48], in the assay on Staph. aureus 133, the MIC is on record as under 1 U/ml.

`CC1(C)S[C@@H]2[C@H](NC(=O)[C@H](NC(=O)c3ccc(NC(=O)c4ccc([N+](=O)[O-])cc4)cc3[N+](=O)[O-])c3ccccc3)C(=O)N2[C@H]1C(=O)O` [Example 27, sodium D(-)-α-[4-(4-nitrobenzoylamino)-2-nitrobenzoylamino]-benzylpenicillin]: the figures for the MIC in the assay with E. coli A 261 and against Staph. aureus 133 were over 256 U/ml and under 1 U/ml, respectively.

For the compound `CC1(C)S[C@@H]2[C@H](NC(=O)[C@H](NC(=O)C=Cc3ccc(NC=O)cc3)c3ccccc3)C(=O)N2[C@H]1C(=O)O` [Example 55], the MIC against Proteus vulg. 1017 is reported as over 256 U/ml; in the assay on Staph. aureus 133 it was under 1 U/ml.

Take `CC1(C)S[C@@H]2[C@H](NC(=O)[C@H](NC(=O)CNC(=O)c3ccc(NC(=O)C4=CCCCC4)cc3)c3ccccc3)C(=O)N2[C@H]1C(=O)O` [Example 67]: the MIC was over 256 U/ml in the assay with Proteus vulg. 1017 and under 1 U/ml in the assay with Staph. aureus 133.

Turning to `CC1(C)S[C@@H]2[C@H](NC(=O)[C@H](NC(=O)c3ccc(NC(=O)CCC4CCCC4)cc3)c3ccccc3)C(=O)N2[C@H]1C(=O)O` [Example 9, sodium D(-)-α-(4-[3-cyclopentylpropionylaminobenzoylamino)]-benzylpenicillin], the MIC with E. coli A 261 was over 256 U/ml; with Staph. aureus 133, under 1 U/ml.

As to `CC1(C)S[C@@H]2[C@H](NC(=O)[C@H](NC(=O)c3cccc(NC(=O)C4CC4)c3)c3ccccc3)C(=O)N2[C@H]1C(=O)O` [Example 51], the MIC against Proteus morg. 932 is reported as over 256 U/ml; against E. coli 14, ~ 16 U/ml; with E. coli A 261, over 256 U/ml; in the assay with Staph. aureus 133, under 1 U/ml.

Consider `CC1(C)S[C@@H]2[C@H](NC(=O)[C@H](NC(=O)c3ccc(NC(=O)C4CCC4)cc3[N+](=O)[O-])c3ccccc3)C(=O)N2[C@H]1C(=O)O` [Example 6, sodium D(-)-α-(4-cyclobutanecarbonylamino-2-nitro-benzoylamino)-benzylpenicillin], for which the MIC with E. coli A 261 is given as over 256 U/ml; in the assay with Staph. aureus 133 it was under 1 U/ml.

For the compound `CC1(C)S[C@@H]2[C@H](NC(=O)[C@H](NC(=O)c3cc(NC(=O)C4CCC4)cc(NC(=O)C4CCC4)c3)c3ccccc3)C(=O)N2[C@H]1C(=O)O` [Example 73], the MIC in the assay on E. coli A 261 is listed as over 256 U/ml; in the assay on Staph. aureus 133 it was under 1 U/ml.

In the case of `CC1(C)S[C@@H]2[C@H](NC(=O)[C@H](NC(=O)C=Cc3ccc(NC(=O)C4CC4)cc3)c3ccccc3)C(=O)N2[C@H]1C(=O)O` [Example 56], the MIC in the assay with E. coli A 261 is reported as over 256 U/ml; against Staph. aureus 133, under 1 U/ml.

As to `CC1(C)S[C@@H]2[C@H](NC(=O)[C@H](NC(=O)c3ccc(NC(=O)C4CC4)c(NC(=O)C4CC4)c3)c3ccccc3)C(=O)N2[C@H]1C(=O)O` [Example 75], the MIC was over 256 U/ml with Proteus morg. 932, over 256 U/ml against E. coli A 261, ~ 16 U/ml in the assay with Enterococcus 9790 and under 1 U/ml with Staph. aureus 133.

Regarding `CC1(C)S[C@@H]2[C@H](NC(=O)[C@H](NC(=O)c3ccc(NC(=O)C4CC4)c([N+](=O)[O-])c3)c3ccccc3)C(=O)N2[C@H]1C(=O)O` [Example 4, sodium D(-)-α-(4-cyclopropanecarbonylamino-3-nitro-benzoylamino)-benzylpenicillin], the figures for the MIC against Proteus morg. 932, in the assay with E. coli A 261 and in the assay on Staph. aureus 133 were over 256 U/ml, over 256 U/ml and under 1 U/ml, respectively.

As to `COc1cc(C(=O)Nc2ccc(SCC(=O)N[C@@H](C(=O)N[C@@H]3C(=O)N4[C@@H]3SC(C)(C)[C@@H]4C(=O)O)c3ccccc3)cc2)cc(OC)c1OC` [Example 58], the MIC against E. coli 14 is listed as ~ 16 U/ml; in the assay on Proteus vulg. 1017, over 256 U/ml; against Staph. aureus 133 it was under 1 U/ml.

On to `CC1(C)S[C@@H]2[C@H](NC(=O)[C@H](NC(=O)c3ccc(NC(=O)CCC4CCCCC4)cc3)c3ccccc3)C(=O)N2[C@H]1C(=O)O` [Example 10, sodium D(-)-α-[4-(3-cyclohexanepropionylamino-benzoylamino)]-benzylpenicillin], for which the MIC against E. coli 14 is listed as under 1 U/ml; in the assay on E. coli A 261 it was over 256 U/ml; against Enterococcus 9790, ~ 16 U/ml; in the assay on Staph. aureus 133, under 1 U/ml.

For `CC1(C)S[C@@H]2[C@H](NC(=O)[C@H](NC(=O)c3ccc(NC(=O)c4cc([N+](=O)[O-])cc([N+](=O)[O-])c4)cc3)c3ccccc3)C(=O)N2[C@H]1C(=O)O` [Example 19], the MIC with E. coli 14 was under 1 U/ml; in the assay with Proteus vulg. 1017 it was ~ 16 U/ml; against E. coli A 261, over 256 U/ml; in the assay with Staph. aureus 133, under 1 U/ml.

In the case of `CC1(C)S[C@@H]2[C@H](NC(=O)[C@H](NC(=O)C=Cc3ccc(NC(=O)C4CCC4)cc3)c3ccccc3)C(=O)N2[C@H]1C(=O)O` [Example 57], the MIC against E. coli 14 was ~ 1 U/ml; in the assay on E. coli A 261, over 256 U/ml; against Staph. aureus 133, under 1 U/ml.

Consider `CC1(C)S[C@@H]2[C@H](NC(=O)[C@H](NC(=O)CNC(=O)c3ccc(N=[N+]=[N-])cc3)c3ccccc3)C(=O)N2[C@H]1C(=O)O` [Example 68], for which the MIC is reported as over 256 U/ml in the assay on E. coli A 261 and under 1 U/ml in the assay with Staph. aureus 133.

On to `CC1(C)S[C@@H]2[C@H](NC(=O)[C@H](NC(=O)c3ccc(NC(=O)C4CCCCCC4)cc3)c3ccccc3)C(=O)N2[C@H]1C(=O)O` [Example 13, sodium D(-)-α-(4-cycloheptanecarbonylamino-benzoylamino)-benzylpenicillin], for which the MIC against E. coli 14 and in the assay with Staph. aureus 133 was under 1 U/ml in each case.

For `CC1(C)S[C@@H]2[C@H](NC(=O)[C@H](NC(=O)c3cc(NC(=O)C4CC4)cc(NC(=O)C4CC4)c3)c3ccccc3)C(=O)N2[C@H]1C(=O)O` [Example 72], the MIC is given as over 256 U/ml against Proteus morg. 932, over 256 U/ml in the assay with E. coli A 261, ~ 16 U/ml with Enterococcus 9790 and under 1 U/ml against Staph. aureus 133.

As to `Cc1cc(C(=O)N[C@@H](C(=O)N[C@@H]2C(=O)N3[C@@H]2SC(C)(C)[C@@H]3C(=O)O)c2ccccc2)ccc1[N+](=O)[O-]` [Example 31, sodium D(-)-α-(4-nitro-3-methylbenzoylamino)-benzylpenicillin], the MIC is over 256 U/ml in the assay with E. coli A 261 and under 1 U/ml in the assay with Staph. aureus 133.

Turning to `CC1(C)S[C@@H]2[C@H](NC(=O)[C@H](NC(=O)CNC(=O)c3ccc(NC(=O)C4CCC4)cc3)c3ccccc3)C(=O)N2[C@H]1C(=O)O` [Example 65], the values for the MIC in the assay with Proteus morg. 932, against E. coli A 261 and against Staph. aureus 133 were over 256 U/ml, over 256 U/ml and under 1 U/ml, respectively.

As for `CC1(C)S[C@@H]2[C@H](NC(=O)[C@H](NC(=O)c3cc(NC=O)cc(NC=O)c3)c3ccccc3)C(=O)N2[C@H]1C(=O)O` [Example 71], the MIC in the assay with Proteus morg. 932 was over 256 U/ml; against E. coli 14, ~ 4 U/ml; against E. coli A 261, over 256 U/ml; against Staph. aureus 133, under 1 U/ml.

Take `CC1(C)S[C@@H]2[C@H](NC(=O)[C@H](NC(=O)c3ccc(NC(=O)CC4CC5CCC4C5)cc3)c3ccccc3)C(=O)N2[C@H]1C(=O)O` (single isomer, unassigned) [Example 15, sodium D(-)-α-[4-(2-norbornylacetamido-benzoylamino)]-benzylpenicillin]: the MIC in the assay on E. coli A 261 is given as over 256 U/ml; in the assay with Staph. aureus 133, under 1 U/ml.

Regarding `CC1(C)S[C@@H]2[C@H](NC(=O)[C@H](NC(=O)c3ccc(NC(=O)C4CC4)cc3[N+](=O)[O-])c3ccccc3)C(=O)N2[C@H]1C(=O)O` [Example 3, sodium D(-)-α-(4-cyclopropanecarbonylamino-2-nitrobenzoylamino)-benzylpenicillin], the MIC with E. coli A 261 is over 256 U/ml.

With `CC(CC(=O)Nc1ccc(C(=O)N[C@@H](C(=O)N[C@@H]2C(=O)N3[C@@H]2SC(C)(C)[C@@H]3C(=O)O)c2ccccc2)cc1)N=[N+]=[N-]` (stereo partly shown) [Example 40], the figures for the MIC with E. coli A 261 and against Staph. aureus 133 were over 256 U/ml and under 1 U/ml, respectively.

Turning to `CC1(C)S[C@@H]2[C@H](NC(=O)[C@H](NC(=O)CNC(=O)c3ccc(NC=O)cc3)c3ccccc3)C(=O)N2[C@H]1C(=O)O` [Example 63], the MIC with Proteus morg. 932 is on record as over 256 U/ml; against E. coli 14, ~ 1 U/ml; against E. coli A 261, over 256 U/ml; in the assay on Enterococcus 9790, ~ 4 U/ml; with Staph. aureus 133, under 1 U/ml.

In the case of `CC1(C)S[C@@H]2[C@H](NC(=O)[C@H](NC(=O)CNC(=O)c3ccc([N+](=O)[O-])cc3)c3ccccc3)C(=O)N2[C@H]1C(=O)O` [Example 69], the MIC against E. coli A 261 was over 256 U/ml; against Staph. aureus 133, under 1 U/ml.
